{"source": "patent US9434711B2", "about": "(Janssen Pharmaceutica, NV, priority 2007, dated 2016)", "molecular_target": "canine TRPM8 (Canis lupus familiaris, UniProt Q1A7N1)", "sequence (Q1A7N1 1-1104)": "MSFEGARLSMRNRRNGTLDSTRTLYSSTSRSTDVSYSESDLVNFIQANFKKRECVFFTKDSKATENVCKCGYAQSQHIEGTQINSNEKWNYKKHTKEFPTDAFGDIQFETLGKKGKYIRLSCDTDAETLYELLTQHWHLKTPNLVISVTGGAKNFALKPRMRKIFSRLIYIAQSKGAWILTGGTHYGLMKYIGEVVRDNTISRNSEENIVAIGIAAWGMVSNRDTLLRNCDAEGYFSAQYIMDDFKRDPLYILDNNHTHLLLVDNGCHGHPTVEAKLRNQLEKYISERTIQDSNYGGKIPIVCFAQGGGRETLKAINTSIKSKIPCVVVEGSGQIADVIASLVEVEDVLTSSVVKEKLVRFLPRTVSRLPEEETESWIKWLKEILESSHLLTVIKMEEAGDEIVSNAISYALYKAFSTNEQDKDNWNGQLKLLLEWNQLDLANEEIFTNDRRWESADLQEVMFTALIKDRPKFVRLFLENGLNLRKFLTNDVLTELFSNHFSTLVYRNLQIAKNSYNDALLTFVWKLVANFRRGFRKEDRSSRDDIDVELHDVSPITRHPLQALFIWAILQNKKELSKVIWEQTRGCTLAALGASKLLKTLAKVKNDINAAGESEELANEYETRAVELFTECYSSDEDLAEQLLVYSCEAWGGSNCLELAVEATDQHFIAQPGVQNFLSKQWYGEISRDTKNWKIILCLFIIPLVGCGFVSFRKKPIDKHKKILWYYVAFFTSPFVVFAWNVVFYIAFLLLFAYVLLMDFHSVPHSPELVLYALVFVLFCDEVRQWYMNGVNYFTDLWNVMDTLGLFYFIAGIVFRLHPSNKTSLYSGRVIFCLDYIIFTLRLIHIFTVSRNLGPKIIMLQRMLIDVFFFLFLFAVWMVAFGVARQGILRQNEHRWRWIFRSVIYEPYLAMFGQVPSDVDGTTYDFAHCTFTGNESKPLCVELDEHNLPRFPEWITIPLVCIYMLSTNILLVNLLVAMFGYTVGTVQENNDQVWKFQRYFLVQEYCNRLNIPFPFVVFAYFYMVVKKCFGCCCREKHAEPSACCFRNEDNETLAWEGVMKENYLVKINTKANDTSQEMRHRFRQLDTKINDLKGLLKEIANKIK", "assay": "In Vitro Canine TRPM8 Functional Assay (Ca2+ fluorescence, icilin activation)", "assay_type": "cell-based", "settings": "for IC50: HEK293 cells stably expressing canine TRPM8, icilin activation, eight-point dose-response, read-out: IC50; for inhibition at 0.2 µM: compound at 0.2 μM, read-out: % Inh @ 0.2; for inhibition at 0.2 µM / inhibition at 0.5 µM: canine TRPM8, icilin activation; for inhibition at 0.5 µM: compound at 0.5 μM, read-out: % Inh @ 0.5", "outline": "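Eight-point dose-response curves, each point averaging quadruplicate wells, gave EC50 or IC50. Canine TRPM8-expressing HEK293 cells, dye-loaded (Calcium 3), were pre-exposed 5 min to compound, then challenged with icilin at roughly EC80; intracellular Ca2+ read by FLIPR or FDSS fluorescence.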", "data": [{"compound": "CS(=O)(=O)N(Cc1ccc(F)c(C(F)(F)F)c1)c1sc2ccccc2c1CO", "note": "[Compound 215, N-(4-Fluoro-3-trifluoromethyl-benzyl)-N-(3-hydroxymethyl-benzo[b]thiophen-2-yl)-methanesulfonamide]", "values": [{"measurement": "IC50", "result": 6, "unit": "nM"}, {"measurement": "inhibition at 0.2 µM", "result": 101, "unit": "%"}]}, {"compound": "CS(=O)(=O)N(Cc1ccc(F)c(F)c1)c1sc2ccccc2c1CO", "note": "[Compound 216, N-(3,4-Difluoro-benzyl)-N-(3-hydroxymethyl-benzo[b]thiophen-2-yl)-methanesulfonamide]", "values": [{"measurement": "IC50", "result": 14, "unit": "nM"}, {"measurement": "inhibition at 0.2 µM", "result": 100, "unit": "%"}]}, {"compound": "CCS(=O)(=O)N(Cc1ccc(F)c(C(F)(F)F)c1)c1sc2ccccc2c1CO", "note": "[Compound 217, N-(4-Fluoro-3-trifluoromethyl-benzyl)-N-(3-hydroxymethyl-benzo[b]thiophen-2-yl)-ethanesulfonamide]", "values": [{"measurement": "IC50", "result": 3, "unit": "nM"}, {"measurement": "inhibition at 0.2 µM", "result": 88, "unit": "%"}]}, {"compound": "O=C(O)c1ccc(S(=O)(=O)N(Cc2ccc(F)c(C(F)(F)F)c2)c2sc3ccccc3c2CO)cc1", "note": "[Compound 218, N-(3-Hydroxymethyl-benzo[b]thiophen-2-yl)-N-(4-fluoro-3-trifluoromethyl-benzyl)-4-carboxy-benzenesulfonamide]", "values": [{"measurement": "IC50", "result": 1, "unit": "nM"}, {"measurement": "inhibition at 0.2 µM", "result": 90, "unit": "%"}]}, {"compound": "CCS(=O)(=O)N(Cc1ccc(F)c(F)c1)c1sc2ccccc2c1CO", "note": "[Compound 219, N-(3,4-Difluoro-benzyl)-N-(3-hydroxymethyl-benzo[b]thiophen-2-yl)-ethanesulfonamide]", "values": [{"measurement": "IC50", "result": 7.8, "unit": "nM"}, {"measurement": "inhibition at 0.2 µM", "result": 101, "unit": "%"}]}, {"compound": "CCS(=O)(=O)N(Cc1ccc(F)c(C(F)(F)F)c1)c1sc2ccccc2c1C(C)O", "note": "(stereo not shown) [Compound 220, N-(4-Fluoro-3-trifluoromethyl-benzyl)-N-[3-(1-hydroxy-ethyl)-benzo[b]thiophen-2-yl]-ethanesulfonamide]", "values": [{"measurement": "IC50", "result": 1.2, "unit": "nM"}, {"measurement": "inhibition at 0.2 µM", "result": 98, "unit": "%"}, {"measurement": "inhibition at 0.5 µM", "result": 99, "unit": "%"}]}, {"compound": "CCS(=O)(=O)N(Cc1ccc(F)c(F)c1)c1sc2ccccc2c1C(C)O", "note": "(stereo not shown) [Compound 221, N-(3,4-Difluoro-benzyl)-N-[3-(1-hydroxy-ethyl)-benzo[b]thiophen-2-yl]-ethanesulfonamide]", "values": [{"measurement": "IC50", "result": 5, "unit": "nM"}, {"measurement": "inhibition at 0.2 µM", "result": 92, "unit": "%"}]}, {"compound": "CC(O)c1c(N(Cc2ccc(F)c(F)c2)S(=O)(=O)c2ccccc2)sc2ccccc12", "note": "(stereo not shown) [Compound 222, N-(3,4-Difluoro-benzyl)-N-[3-(1-hydroxy-ethyl)-benzo[b]thiophen-2-yl]-benzenesulfonamide]", "values": [{"measurement": "IC50", "result": 1.7, "unit": "nM"}, {"measurement": "inhibition at 0.2 µM", "result": 95, "unit": "%"}]}, {"compound": "CC(O)c1c(N(Cc2ccc(F)c(C(F)(F)F)c2)S(=O)(=O)c2ccccc2)sc2ccccc12", "note": "(stereo not shown) [Compound 223, N-(4-Fluoro-3-trifluoromethyl-benzyl)-N-[3-(1-hydroxy-ethyl)-benzo[b]thiophen-2-yl]-benzenesulfonamide]", "values": [{"measurement": "IC50", "result": 2.3, "unit": "nM"}, {"measurement": "inhibition at 0.2 µM", "result": 96, "unit": "%"}]}, {"compound": "CC(O)c1c(N(Cc2ccc(F)c(C(F)(F)F)c2)S(C)(=O)=O)sc2ccccc12", "note": "(stereo not shown) [Compound 224, N-(4-Fluoro-3-trifluoromethyl-benzyl)-N-[3-(1-hydroxy-ethyl)-benzo[b]thiophen-2-yl]-methanesulfonamide]", "values": [{"measurement": "IC50", "result": 1, "unit": "nM"}, {"measurement": "inhibition at 0.2 µM", "result": 100, "unit": "%"}]}, {"compound": "CC(O)c1c(N(Cc2ccc(F)c(F)c2)S(C)(=O)=O)sc2ccccc12", "note": "(stereo not shown) [Compound 225, N-(3,4-Difluoro-benzyl)-N-[3-(1-hydroxy-ethyl)-benzo[b]thiophen-2-yl]-methanesulfonamide]", "values": [{"measurement": "IC50", "result": 4, "unit": "nM"}, {"measurement": "inhibition at 0.2 µM", "result": 98, "unit": "%"}]}, {"compound": "CCS(=O)(=O)N(Cc1ccc(F)c(F)c1)c1sc2ccccc2c1C(C)(C)O", "note": "[Compound 226, N-(3,4-Difluoro-benzyl)-N-[3-(1-hydroxy-1-methyl-ethyl)-benzo[b]thiophen-2-yl]-ethanesulfonamide]", "values": [{"measurement": "IC50", "result": 2, "unit": "nM"}, {"measurement": "inhibition at 0.2 µM", "result": 99, "unit": "%"}]}, {"compound": "CCS(=O)(=O)N(Cc1ccc(F)c(C(F)(F)F)c1)c1sc2ccccc2c1C(C)(C)O", "note": "[Compound 227, N-(4-Fluoro-3-trifluoromethyl-benzyl)-N-[3-(1-hydroxy-1-methyl-ethyl)-benzo[b]thiophen-2-yl]-ethanesulfonamide]", "values": [{"measurement": "IC50", "result": 0.6, "unit": "nM"}, {"measurement": "inhibition at 0.2 µM", "result": 101, "unit": "%"}]}, {"compound": "CC(=O)c1c(N(Cc2ccc(F)c(C(F)(F)F)c2)S(C)(=O)=O)sc2ccccc12", "note": "[Compound 228, N-(3-Acetyl-benzo[b]thiophen-2-yl)-N-(4-fluoro-3-trifluoromethyl-benzyl)-methanesulfonamide]", "values": [{"measurement": "IC50", "result": 6, "unit": "nM"}, {"measurement": "inhibition at 0.2 µM", "result": 101, "unit": "%"}]}, {"compound": "CC(=O)c1c(N(Cc2ccc(F)c(F)c2)S(C)(=O)=O)sc2ccccc12", "note": "[Compound 229, N-(3-Acetyl-benzo[b]thiophen-2-yl)-N-(3,4-difluoro-benzyl)-methanesulfonamide]", "values": [{"measurement": "IC50", "result": 21, "unit": "nM"}, {"measurement": "inhibition at 0.2 µM", "result": 99, "unit": "%"}]}, {"compound": "CCOC(=O)CCCCCN(c1sc2ccccc2c1Br)S(=O)(=O)c1ccccc1", "note": "[Compound 230, N-(3-Bromo-benzo[b]thiophen-2-yl)-N-(5-carboethoxy-pentyl)benzenesulfonamide]", "values": [{"measurement": "IC50", "result": 12.9, "unit": "nM"}, {"measurement": "inhibition at 0.2 µM", "result": 100, "unit": "%"}]}, {"compound": "CCCCN(c1sc2ccccc2c1Br)S(=O)(=O)c1ccccc1", "note": "[Compound 231, N-(3-Bromo-benzo[b]thiophen-2-yl)-N-(butyl)-benzenesulfonamide]", "values": [{"measurement": "IC50", "result": 29, "unit": "nM"}, {"measurement": "inhibition at 0.5 µM", "result": 95, "unit": "%"}]}, {"compound": "O=S(=O)(c1ccccc1)N(CC1CCCCC1)c1sc2ccccc2c1Br", "note": "[Compound 232, N-(3-Bromo-benzo[b]thiophen-2-yl)-N-(cyclohexylmethyl)-benzenesulfonamide]", "values": [{"measurement": "IC50", "result": 74, "unit": "nM"}, {"measurement": "inhibition at 0.5 µM", "result": 94, "unit": "%"}]}, {"compound": "O=S(=O)(c1ccccc1)N(CCc1ccccc1)c1sc2ccccc2c1Br", "note": "[Compound 233, N-(3-Bromo-benzo[b]thiophen-2-yl)-N-(phenethyl)-benzenesulfonamide]", "values": [{"measurement": "IC50", "result": 22, "unit": "nM"}, {"measurement": "inhibition at 0.5 µM", "result": 93, "unit": "%"}]}, {"compound": "CC(C)(C)OCCN(c1sc2ccccc2c1Br)S(=O)(=O)c1ccccc1", "note": "[Compound 234, N-(3-Bromo-benzo[b]thiophen-2-yl)-N-(2-tert-butoxy-ethyl)-benzenesulfonamide]", "values": [{"measurement": "IC50", "result": 10, "unit": "nM"}, {"measurement": "inhibition at 0.5 µM", "result": 93, "unit": "%"}]}, {"compound": "O=S(=O)(c1ccccc1)N(C[C@@H](O)CO)c1sc2ccccc2c1Br", "note": "[Compound 235, (R)—N-(3-Bromo-benzo[b]thiophen-2-yl)-N-(2,3-dihydroxy-propyl)-benzenesulfonamide]", "values": [{"measurement": "inhibition at 0.5 µM", "result": 51, "unit": "%"}]}, {"compound": "O=C1CCCN1CCN(c1sc2ccccc2c1Br)S(=O)(=O)c1ccccc1", "note": "[Compound 236, N-(3-Bromo-benzo[b]thiophen-2-yl)-N-[2-(2-oxo-pyrrolidin-1-yl)-ethyl]-benzenesulfonamide]", "values": [{"measurement": "inhibition at 0.5 µM", "result": 68, "unit": "%"}]}, {"compound": "O=S(=O)(c1ccccc1)N(CCN1CCOCC1)c1sc2ccccc2c1Br", "note": "[Compound 237, N-(3-Bromo-benzo[b]thiophen-2-yl)-N-(2-morpholin-4-yl-ethyl)-benzenesulfonamide]", "values": [{"measurement": "IC50", "result": 24.8, "unit": "nM"}, {"measurement": "inhibition at 0.2 µM", "result": 87, "unit": "%"}, {"measurement": "inhibition at 0.5 µM", "result": 92, "unit": "%"}]}, {"compound": "CN(C)CCN(c1sc2ccccc2c1Br)S(=O)(=O)c1ccccc1", "note": "[Compound 238, N-(3-Bromo-benzo[b]thiophen-2-yl)-N-(2-dimethylamino-ethyl)-benzenesulfonamide]", "values": [{"measurement": "IC50", "result": 93, "unit": "nM"}, {"measurement": "inhibition at 0.5 µM", "result": 96, "unit": "%"}]}, {"compound": "CS(=O)(=O)CCN(c1sc2ccccc2c1Br)S(=O)(=O)c1ccccc1", "note": "[Compound 239, N-(3-Bromo-benzo[b]thiophen-2-yl)-N-(2-methanesulfonyl-ethyl)-benzenesulfonamide]", "values": [{"measurement": "IC50", "result": 92, "unit": "nM"}, {"measurement": "inhibition at 0.5 µM", "result": 96, "unit": "%"}]}, {"compound": "O=C1NCCN1CCN(c1sc2ccccc2c1Br)S(=O)(=O)c1ccccc1", "note": "[Compound 240, N-(3-Bromo-benzo[b]thiophen-2-yl)-N-[2-(2-oxo-imidazolidin-1-yl)-ethyl]-benzenesulfonamide]", "values": [{"measurement": "inhibition at 0.5 µM", "result": 43, "unit": "%"}]}, {"compound": "CN1CCC[C@H]1CN(c1sc2ccccc2c1Br)S(=O)(=O)c1ccccc1", "note": "[Compound 241, (S)—N-(3-Bromo-benzo[b]thiophen-2-yl)-N-(1-methyl-pyrrolidin-2-ylmethyl)-benzenesulfonamide]", "values": [{"measurement": "IC50", "result": 106, "unit": "nM"}, {"measurement": "inhibition at 0.5 µM", "result": 97, "unit": "%"}]}, {"compound": "O=S(=O)(c1ccccc1)N(CC(F)F)c1sc2ccccc2c1Br", "note": "[Compound 242, N-(3-Bromo-benzo[b]thiophen-2-yl)-N-(2,2-difluoro-ethyl)-benzenesulfonamide]", "values": [{"measurement": "IC50", "result": 38.2, "unit": "nM"}, {"measurement": "inhibition at 0.2 µM", "result": 95, "unit": "%"}]}, {"compound": "COC(=O)CN(c1sc2ccccc2c1Br)S(=O)(=O)c1ccccc1", "note": "[Compound 243, N-(3-Bromo-benzo[b]thiophen-2-yl)-N-(carbomethoxymethyl)-benzenesulfonamide]", "values": [{"measurement": "IC50", "result": 38, "unit": "nM"}, {"measurement": "inhibition at 0.2 µM", "result": 98, "unit": "%"}]}, {"compound": "COC(=O)[C@@H](C)CN(c1sc2ccccc2c1Br)S(=O)(=O)c1ccccc1", "note": "[Compound 244, N-(3-Bromo-benzo[b]thiophen-2-yl)-N-[2(S)-methyl-2-carbomethoxy-ethyl]-benzenesulfonamide]", "values": [{"measurement": "inhibition at 0.2 µM", "result": 100, "unit": "%"}]}, {"compound": "COC(=O)[C@H](C)CN(c1sc2ccccc2c1Br)S(=O)(=O)c1ccccc1", "note": "[Compound 245, N-(3-Bromo-benzo[b]thiophen-2-yl)-N-[2(R)-methyl-2-carbomethoxy-ethyl]-benzenesulfonamide]", "values": [{"measurement": "inhibition at 0.2 µM", "result": 102, "unit": "%"}]}, {"compound": "O=S(=O)(c1ccccc1)N(CCCc1ccccc1)c1sc2ccccc2c1Br", "note": "[Compound 246, N-(3-Bromo-benzo[b]thiophen-2-yl)-N-(3-phenyl-propyl)-benzenesulfonamide]", "values": [{"measurement": "IC50", "result": 8.8, "unit": "nM"}, {"measurement": "inhibition at 0.2 µM", "result": 102, "unit": "%"}]}, {"compound": "CCN(c1sc2ccccc2c1Br)S(=O)(=O)c1ccccc1", "note": "[Compound 247, N-(3-Bromo-benzo[b]thiophen-2-yl)-N-(ethyl)-benzenesulfonamide]", "values": [{"measurement": "IC50", "result": 25.5, "unit": "nM"}, {"measurement": "inhibition at 0.2 µM", "result": 99, "unit": "%"}]}, {"compound": "CCCCCCN(c1sc2ccccc2c1Br)S(=O)(=O)c1ccccc1", "note": "[Compound 248, N-(3-Bromo-benzo[b]thiophen-2-yl)-N-(hexyl)-benzenesulfonamide]", "values": [{"measurement": "IC50", "result": 8.3, "unit": "nM"}, {"measurement": "inhibition at 0.2 µM", "result": 98, "unit": "%"}]}, {"compound": "O=S(=O)(c1ccccc1)N(CC12CC3CC(CC(C3)C1)C2)c1sc2ccccc2c1Br", "note": "[Compound 249, N-(Adamant-1-ylmethyl)-N-(3-bromo-benzo[b]thiophen-2-yl)-benzenesulfonamide]", "values": [{"measurement": "IC50", "result": 0.9, "unit": "nM"}, {"measurement": "inhibition at 0.2 µM", "result": 97, "unit": "%"}]}]}
